Test results from ChEMBL document CHEMBL5727382, “[1,2,3]triazolo[4,5-D]pyrimidine derivatives with affinity for the type-2 cannabinoid receptor” (2019).

How the values were obtained:
Cannabinoid receptor 1 = Cannabinoid receptor 1 (Homo sapiens, UniProt P21554); assay: (§1) Radioligand Binding Assay: he affinity of the compounds of the invention for cannabinoid receptors was determined using recommended amounts of membrane preparations (PerkinElmer) of human embryonic kidney (HEK) cells expressing the human CNR1 or CNR2 receptors in conjunction with 1.5 or 2.6 nM [3H]-CP-55,940 (Perkin Elmer) as radioligand, respectively. Binding was performed in binding buffer (50 mM Tris, 5 mM MgCl2, 2.5 mM EDTA, and 0.5% (wt/vol) fatty acid free BSA, pH 7.4 for CB1 receptor and 50 mM Tris, 5 mM MgCl2, 2.5 mM EGTA, and 0.1% (wt/vol) fatty acid free BSA, pH 7.4 for CB2 receptor) in a total volume of 0.2 mL for 1 h at 30° C. shaking. The reaction was terminated by rapid filtration through microfiltration plates coated with 0.5% polyethylenimine (UniFilter GF/B filter plate; Packard). Bound radioactivity was analyzed for Ki using nonlinear regression analysis (Activity Base, ID Business Solution, Limited), with the Kd values for [3H]CP55,940 determined from saturation experiments.
Sequence of Cannabinoid receptor 1 (P21554 whole entry): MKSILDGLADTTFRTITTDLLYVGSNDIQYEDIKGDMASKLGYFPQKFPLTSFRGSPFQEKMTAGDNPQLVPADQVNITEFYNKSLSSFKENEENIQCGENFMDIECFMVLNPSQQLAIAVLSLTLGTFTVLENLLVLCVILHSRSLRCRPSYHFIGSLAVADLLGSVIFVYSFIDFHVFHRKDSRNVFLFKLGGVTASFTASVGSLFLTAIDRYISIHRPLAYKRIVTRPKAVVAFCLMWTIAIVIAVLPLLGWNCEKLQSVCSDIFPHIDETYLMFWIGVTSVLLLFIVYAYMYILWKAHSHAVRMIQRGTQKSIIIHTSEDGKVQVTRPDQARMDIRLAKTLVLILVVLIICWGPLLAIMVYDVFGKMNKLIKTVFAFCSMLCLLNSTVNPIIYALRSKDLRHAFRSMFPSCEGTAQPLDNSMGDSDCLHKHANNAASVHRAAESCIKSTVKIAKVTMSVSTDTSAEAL

Cannabinoid receptor 2 = Cannabinoid receptor 2 (Homo sapiens, UniProt P34972); assay: as §1
Sequence of Cannabinoid receptor 2 (P34972 whole entry): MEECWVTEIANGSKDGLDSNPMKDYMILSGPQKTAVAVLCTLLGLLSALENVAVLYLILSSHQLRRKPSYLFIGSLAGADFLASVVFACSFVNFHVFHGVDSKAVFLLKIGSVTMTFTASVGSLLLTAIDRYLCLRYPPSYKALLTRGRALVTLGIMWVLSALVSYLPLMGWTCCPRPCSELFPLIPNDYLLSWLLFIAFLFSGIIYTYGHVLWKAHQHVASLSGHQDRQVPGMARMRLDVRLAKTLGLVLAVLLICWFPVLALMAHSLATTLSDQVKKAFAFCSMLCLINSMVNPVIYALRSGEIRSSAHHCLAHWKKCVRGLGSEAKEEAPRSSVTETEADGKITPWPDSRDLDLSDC

CC(C)(C)c1nc(N2CCC(N=C=S)C2)c2nnn(Cc3ccccc3Cl)c2n1 (centres undefined)
Ki (Cannabinoid receptor 1): 5.64 µM | Ki (Cannabinoid receptor 2): 1360 nM

Cc1nonc1Cn1nnc2c(N3CC[C@@H](S)C3)nc(C(C)(C)C)nc21 (single isomer, unassigned)
Ki (Cannabinoid receptor 1): 8 µM | Ki (Cannabinoid receptor 2): 640 nM
